“And” between values parts separate entries of the source, which are not always exact repeats. Equal values may be shown once. Inconclusive results and toxic doses are left out. No stated cut-off is given here; in the data, active means T/C of 150% or more; inactive means T/C below 125%.
System: L1210 leukemia ip in BDF1 mice, survival T/C
Test: NCI In Vivo Anticancer Drug Screen. Data for tumor model L1210 Leukemia (intraperitoneal) in B6D2F1 (BDF1) mice
Conditions: endpoint: mean survival time, higher = longer survival
Summary of the method: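 Value reflects the ratio of survival in compound-treated mice to survival in vehicle-treated controls, with both groups carrying the same transplanted tumor.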

[1] = dose: 100.0 mg/kg/injection, schedule: Q04DX003 (ip), vehicle: Klucel (hydroxypropylcellulose) (HPC)
[2] = dose: 50.0 mg/kg/injection, schedule: Q01DX001 (ip), vehicle: saline
[3] = dose: 100.0 mg/kg/injection, schedule: Q01DX001 (ip), vehicle: saline
[4] = dose: 200.0 mg/kg/injection, schedule: Q01DX001 (ip), vehicle: saline
[5] = dose: 400.0 mg/kg/injection, schedule: Q01DX001 (ip), vehicle: saline
[6] = dose: 100.0 mg/kg/injection, schedule: Q04DX003 (ip), vehicle: saline with Tween-80
[7] = dose: 200.0 mg/kg/injection, schedule: Q04DX003 (ip), vehicle: saline with Tween-80
[8] = dose: 400.0 mg/kg/injection, schedule: Q04DX003 (ip), vehicle: saline with Tween-80
[9] = dose: 25.0 mg/kg/injection, schedule: Q01DX009 (ip), vehicle: saline with Tween-80
[10] = dose: 50.0 mg/kg/injection, schedule: Q01DX009 (ip), vehicle: saline with Tween-80
[11] = dose: 100.0 mg/kg/injection, schedule: Q01DX009 (ip), vehicle: saline with Tween-80
[12] = dose: 200.0 mg/kg/injection, schedule: Q01DX009 (ip), vehicle: saline with Tween-80

Measured: T/C

O=C(Nc1ccccc1C(F)(F)F)N(CC(O)c1ccccc1)C1CCCCC1 (configuration not stated)
inactive: dose: 100.0 mg/kg/injection, schedule: Q01DX009 (ip), vehicle: Klucel (hydroxypropylcellulose) (HPC) 106 % of control | dose: 200.0 mg/kg/injection, schedule: Q01DX009 (ip), vehicle: Klucel (hydroxypropylcellulose) (HPC) 95 % of control | dose: 400.0 mg/kg/injection, schedule: Q01DX009 (ip), vehicle: Klucel (hydroxypropylcellulose) (HPC) 100 % of control

O=C1NC(=O)N(c2ccccc2)C(=O)/C1=C/c1ccccc1
inactive: dose: 100.0 mg/kg/injection, schedule: Q01DX001 (ip), vehicle: Klucel (hydroxypropylcellulose) (HPC) 90 % of control | dose: 200.0 mg/kg/injection, schedule: Q01DX001 (ip), vehicle: Klucel (hydroxypropylcellulose) (HPC) 97 % of control

Cc1ccc(SC(=O)CCl)cc1
inactive: dose: 66.0 mg/kg/injection, schedule: Q01DX009 (ip), vehicle: gum acacia 93 % of control | dose: 100.0 mg/kg/injection, schedule: Q01DX009 (ip), vehicle: gum acacia 90 % of control | dose: 100.0 mg/kg/injection, schedule: Q04DX003 (ip), vehicle: gum acacia 102 % of control | dose: 150.0 mg/kg/injection, schedule: Q01DX009 (ip), vehicle: gum acacia 90 % of control | dose: 200.0 mg/kg/injection, schedule: Q01DX009 (ip), vehicle: gum acacia 97 % of control | dose: 200.0 mg/kg/injection, schedule: Q04DX003 (ip), vehicle: gum acacia 96 % of control | dose: 400.0 mg/kg/injection, schedule: Q04DX003 (ip), vehicle: gum acacia 94 % of control

Cc1ccc[n+](CC(=O)c2ccccc2)c1
inactive: dose: 0.19 mg/kg/injection, schedule: Q04DX003 (ip), vehicle: saline 102 % of control | dose: 0.39 mg/kg/injection, schedule: Q01DX009 (ip), vehicle: saline 98 % of control | dose: 0.39 mg/kg/injection, schedule: Q04DX003 (ip), vehicle: saline 98 % of control | dose: 0.78 mg/kg/injection, schedule: Q01DX009 (ip), vehicle: saline 106 % of control | dose: 0.78 mg/kg/injection, schedule: Q04DX003 (ip), vehicle: saline 96 % of control | dose: 1.56 mg/kg/injection, schedule: Q04DX003 (ip), vehicle: saline 98 % of control | dose: 75.0 mg/kg/injection, schedule: Q01DX001 (ip), vehicle: saline 97 % of control | dose: 150.0 mg/kg/injection, schedule: Q01DX001 (ip), vehicle: saline 90 % of control | dose: 300.0 mg/kg/injection, schedule: Q01DX001 (ip), vehicle: saline 88 % of control

CCC(CC)(C(=O)O)C(=O)O
inactive: dose: 25.0 mg/kg/injection, schedule: Q04DX003 (ip), vehicle: Klucel (hydroxypropylcellulose) (HPC) 93 % of control | dose: 50.0 mg/kg/injection, schedule: Q04DX003 (ip), vehicle: Klucel (hydroxypropylcellulose) (HPC) 90 % of control | [1] 96 % of control and 88 % of control

Fc1cc(N(CCCl)CCCl)ccc1C=Nc1ccc(-n2ccnc2)cc1
inactive: dose: 62.5 mg/kg/injection, schedule: Q04DX002 (ip), vehicle: Klucel (hydroxypropylcellulose) (HPC) 102 % of control | dose: 125.0 mg/kg/injection, schedule: Q04DX002 (ip), vehicle: Klucel (hydroxypropylcellulose) (HPC) 106 % of control | dose: 250.0 mg/kg/injection, schedule: Q04DX002 (ip), vehicle: Klucel (hydroxypropylcellulose) (HPC) 106 % of control

Cc1ccc[n+](CCC(N)=O)c1
inactive: dose: 100.0 mg/kg/injection, schedule: Q01DX009 (ip), vehicle: saline 92 % of control | dose: 100.0 mg/kg/injection, schedule: Q04DX003 (ip), vehicle: saline 102 % of control | dose: 200.0 mg/kg/injection, schedule: Q01DX009 (ip), vehicle: saline 93 % of control | dose: 200.0 mg/kg/injection, schedule: Q04DX003 (ip), vehicle: saline 102 % of control | dose: 400.0 mg/kg/injection, schedule: Q01DX009 (ip), vehicle: saline 97 % of control | dose: 400.0 mg/kg/injection, schedule: Q04DX003 (ip), vehicle: saline 94 % of control

NC(=O)CC(NC(=O)C(F)(F)F)C(=O)O (configuration not stated)
inactive: dose: 100.0 mg/kg/injection, schedule: Q04DX003 (ip), vehicle: carboxymethylcellulose (CMC) 98 % of control | dose: 200.0 mg/kg/injection, schedule: Q04DX003 (ip), vehicle: carboxymethylcellulose (CMC) 98 % of control | dose: 400.0 mg/kg/injection, schedule: Q04DX003 (ip), vehicle: carboxymethylcellulose (CMC) 88 % of control

O=Nc1ccc(/C=C/C(=O)O)cc1
inactive: [2] 102 % of control | [3] 105 % of control | [4] 100 % of control | [5] 113 % of control

FC(F)(F)C(c1ccc(Cl)cc1)c1ccc(Cl)cc1
inactive: dose: 10.0 mg/kg/injection, schedule: Q01DX009 (ip), vehicle: saline with Tween-80 105 % of control | dose: 20.0 mg/kg/injection, schedule: Q01DX009 (ip), vehicle: saline with Tween-80 89 % of control | dose: 40.0 mg/kg/injection, schedule: Q01DX009 (ip), vehicle: saline with Tween-80 97 % of control | [2] 103 % of control | [3] 97 % of control | dose: 100.0 mg/kg/injection, schedule: Q01DX009 (ip), vehicle: other 97 % of control | [6] 103 % of control | [4] 97 % of control | [7] 102 % of control | [5] 103 % of control | [8] 100 % of control

O=S(=O)(F)c1c(Cl)cccc1CBr
inactive: [9] 100 % of control | [10] 96 % of control | [11] 86 % of control

NOCc1nnc(Nc2ccccc2)s1
inactive: [11] 92 % of control | [12] 90 % of control

CSc1ncc(Br)c(Cl)n1
inactive: dose: 5.0 mg/kg/injection, schedule: Q01DX001 (ip), vehicle: carboxymethylcellulose (CMC) 95 % of control | dose: 10.0 mg/kg/injection, schedule: Q01DX001 (ip), vehicle: carboxymethylcellulose (CMC) 98 % of control | dose: 20.0 mg/kg/injection, schedule: Q01DX001 (ip), vehicle: carboxymethylcellulose (CMC) 95 % of control | dose: 40.0 mg/kg/injection, schedule: Q01DX001 (ip), vehicle: carboxymethylcellulose (CMC) 93 % of control | dose: 80.0 mg/kg/injection, schedule: Q01DX001 (ip), vehicle: carboxymethylcellulose (CMC) 93 % of control

CCOC(=O)NC(NC(=O)OCC)c1ccc(Cl)c(Cl)c1
inactive: dose: 100.0 mg/kg/injection, schedule: Q01DX001 (ip), vehicle: carboxymethylcellulose (CMC) 98 % of control | dose: 200.0 mg/kg/injection, schedule: Q01DX001 (ip), vehicle: carboxymethylcellulose (CMC) 98 % of control | dose: 400.0 mg/kg/injection, schedule: Q01DX001 (ip), vehicle: carboxymethylcellulose (CMC) 93 % of control

CC(=O)Nc1nc(C)c(CCC(C)C)c(Cl)n1
inactive: dose: 25.0 mg/kg/injection, schedule: Q04DX002 (ip), vehicle: Klucel (hydroxypropylcellulose) (HPC) 104 % of control | dose: 50.0 mg/kg/injection, schedule: Q04DX002 (ip), vehicle: Klucel (hydroxypropylcellulose) (HPC) 93 % of control | dose: 100.0 mg/kg/injection, schedule: Q04DX002 (ip), vehicle: Klucel (hydroxypropylcellulose) (HPC) 105 % of control

O=C(Nc1ccc(F)c(Cl)c1)Oc1cc(=O)oc2ccccc12
inactive: [1] 92 % of control | dose: 200.0 mg/kg/injection, schedule: Q04DX003 (ip), vehicle: Klucel (hydroxypropylcellulose) (HPC) 101 % of control | dose: 400.0 mg/kg/injection, schedule: Q04DX003 (ip), vehicle: Klucel (hydroxypropylcellulose) (HPC) 105 % of control

Cc1cc(OC(=O)Nc2c(C)cccc2C)cc(C)c1Cl
inactive: dose: 25.0 mg/kg/injection, schedule: Q01DX001 (ip), vehicle: saline with Tween-80 93 % of control | [9] 111 % of control and 89 % of control | dose: 25.0 mg/kg/injection, schedule: Q04DX003 (ip), vehicle: saline with Tween-80 107 % of control | dose: 50.0 mg/kg/injection, schedule: Q01DX001 (ip), vehicle: saline with Tween-80 88 % of control | [10] 100 % of control and 114 % of control | dose: 50.0 mg/kg/injection, schedule: Q04DX002 (ip), vehicle: saline with Tween-80 94 % of control and 102 % of control | dose: 50.0 mg/kg/injection, schedule: Q04DX003 (ip), vehicle: saline with Tween-80 93 % of control | [6] 91 % of control | [12] 93 % of control | [7] 92 % of control | dose: 400.0 mg/kg/injection, schedule: Q01DX009 (ip), vehicle: saline with Tween-80 93 % of control | [8] 103 % of control
